#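 The compound was tested at five concentrations on cells cultured in 96-well plates, with a 48-hour exposure period. Abbreviation: GI50, concentration required for 50% inhibition of growth. TGI is the concentration that stops growth completely.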
# Legend:
# Test in all cases: NCI tumour cell line growth inhibition, 48 h
# SK-MEL-5 melanoma = test system: SK-MEL-5 melanoma
# DU-145 prostate = test system: DU-145 prostate
# NCI-H226 lung = test system: NCI-H226 lung
# UO-31 renal = test system: UO-31 renal
# T-47D breast = test system: T-47D breast
# COLO 205 colon = test system: COLO 205 colon
# HOP-62 NSCLC = test system: HOP-62 NSCLC
# OVCAR-8 ovarian = test system: OVCAR-8 ovarian
# IGROV1 ovarian = test system: IGROV1 ovarian
# SF-268 CNS = test system: SF-268 CNS
# SW-620 colon = test system: SW-620 colon
# SF-539 CNS = test system: SF-539 CNS
# HCC-2998 colon = test system: HCC-2998 colon
# NCI-H23 lung = test system: NCI-H23 lung
# RXF 393 renal = test system: RXF 393 renal
# HCT-15 colon = test system: HCT-15 colon
# OVCAR-4 ovarian = test system: OVCAR-4 ovarian
# SK-MEL-28 melanoma = test system: SK-MEL-28 melanoma
# RPMI-8226 leukemia = test system: RPMI-8226 leukemia
# NCI/ADR-RES ovarian = test system: NCI/ADR-RES ovarian
# CAKI-1 renal = test system: CAKI-1 renal
# 786-0 renal = test system: 786-0 renal
# SNB-75 CNS = test system: SNB-75 CNS
# K-562 leukemia = test system: K-562 leukemia
# BT-549 breast = test system: BT-549 breast
# EKVX NSCLC = test system: EKVX NSCLC
# NCI-H460 lung = test system: NCI-H460 lung
# UACC-257 melanoma = test system: UACC-257 melanoma
# OVCAR-5 ovarian = test system: OVCAR-5 ovarian
# OVCAR-3 ovarian = test system: OVCAR-3 ovarian
# HL-60(TB) leukemia = test system: HL-60(TB) leukemia
# TK-10 renal = test system: TK-10 renal
# SNB-19 CNS = test system: SNB-19 CNS
# KM12 colon = test system: KM12 colon
# M14 melanoma = test system: M14 melanoma
# A549 NSCLC = test system: A549 NSCLC
# ACHN renal = test system: ACHN renal
# MCF7 breast = test system: MCF7 breast
# SN12C renal = test system: SN12C renal
# HT29 colon = test system: HT29 colon
# U251 CNS = test system: U251 CNS
# SF-295 CNS = test system: SF-295 CNS
# CCRF-CEM leukemia = test system: CCRF-CEM leukemia
# LOX IMVI melanoma = test system: LOX IMVI melanoma
# SR leukemia = test system: SR leukemia
# HS 578T breast = test system: HS 578T breast
# MALME-3M melanoma = test system: MALME-3M melanoma
# MDA-MB-231 breast = test system: MDA-MB-231 breast
# UACC-62 melanoma = test system: UACC-62 melanoma
# NCI-H522 lung = test system: NCI-H522 lung
# HOP-92 NSCLC = test system: HOP-92 NSCLC
# MDA-MB-435 = test system: MDA-MB-435
# SK-OV-3 ovarian = test system: SK-OV-3 ovarian
# PC-3 prostate = test system: PC-3 prostate
# MOLT-4 leukemia = test system: MOLT-4 leukemia
# SK-MEL-2 melanoma = test system: SK-MEL-2 melanoma
structure (smiles),measurement,setting,value
Cc1cc(S(=O)(=O)Nc2n[nH]c(-c3ccc(Cl)cc3)c2C#N)c(S)cc1Cl,GI50,SK-MEL-5 melanoma,> 100 µM
same,TGI,SK-MEL-5 melanoma,> 100 µM
same,GI50,DU-145 prostate,> 100 µM
same,TGI,DU-145 prostate,> 100 µM
same,GI50,NCI-H226 lung,> 100 µM
same,TGI,NCI-H226 lung,> 100 µM
same,GI50,UO-31 renal,> 100 µM
same,TGI,UO-31 renal,> 100 µM
same,GI50,T-47D breast,> 100 µM
same,TGI,T-47D breast,> 100 µM
same,GI50,COLO 205 colon,> 100 µM
same,TGI,COLO 205 colon,> 100 µM
same,GI50,HOP-62 NSCLC,> 100 µM
same,TGI,HOP-62 NSCLC,> 100 µM
same,GI50,OVCAR-8 ovarian,> 100 µM
same,TGI,OVCAR-8 ovarian,> 100 µM
same,GI50,IGROV1 ovarian,> 100 µM
same,TGI,IGROV1 ovarian,> 100 µM
same,GI50,SF-268 CNS,> 100 µM
same,TGI,SF-268 CNS,> 100 µM
same,GI50,SW-620 colon,> 100 µM
same,TGI,SW-620 colon,> 100 µM
same,GI50,SF-539 CNS,> 100 µM
same,TGI,SF-539 CNS,> 100 µM
same,GI50,HCC-2998 colon,95.5 µM
same,TGI,HCC-2998 colon,> 100 µM
same,GI50,NCI-H23 lung,> 100 µM
same,TGI,NCI-H23 lung,> 100 µM
same,GI50,RXF 393 renal,> 100 µM
same,TGI,RXF 393 renal,> 100 µM
same,GI50,HCT-15 colon,> 100 µM
same,TGI,HCT-15 colon,> 100 µM
same,GI50,OVCAR-4 ovarian,> 100 µM
same,TGI,OVCAR-4 ovarian,> 100 µM
same,GI50,SK-MEL-28 melanoma,> 100 µM
same,TGI,SK-MEL-28 melanoma,> 100 µM
same,GI50,RPMI-8226 leukemia,> 100 µM
same,TGI,RPMI-8226 leukemia,> 100 µM
same,GI50,NCI/ADR-RES ovarian,> 100 µM
same,TGI,NCI/ADR-RES ovarian,> 100 µM
same,GI50,CAKI-1 renal,30.3 µM
same,TGI,CAKI-1 renal,> 100 µM
same,GI50,786-0 renal,> 100 µM
same,TGI,786-0 renal,> 100 µM
same,GI50,SNB-75 CNS,> 100 µM
same,TGI,SNB-75 CNS,> 100 µM
same,GI50,K-562 leukemia,> 100 µM
same,TGI,K-562 leukemia,> 100 µM
same,GI50,BT-549 breast,> 100 µM
same,TGI,BT-549 breast,> 100 µM
same,GI50,EKVX NSCLC,> 100 µM
same,TGI,EKVX NSCLC,> 100 µM
same,GI50,NCI-H460 lung,> 100 µM
same,TGI,NCI-H460 lung,> 100 µM
same,GI50,UACC-257 melanoma,> 100 µM
same,TGI,UACC-257 melanoma,> 100 µM
same,GI50,OVCAR-5 ovarian,> 100 µM
same,TGI,OVCAR-5 ovarian,> 100 µM
same,GI50,OVCAR-3 ovarian,> 100 µM
same,TGI,OVCAR-3 ovarian,> 100 µM
same,GI50,HL-60(TB) leukemia,> 100 µM
same,TGI,HL-60(TB) leukemia,> 100 µM
same,GI50,TK-10 renal,> 100 µM
same,TGI,TK-10 renal,> 100 µM
same,GI50,SNB-19 CNS,> 100 µM
same,TGI,SNB-19 CNS,> 100 µM
same,GI50,KM12 colon,> 100 µM
same,TGI,KM12 colon,> 100 µM
same,GI50,M14 melanoma,> 100 µM
same,TGI,M14 melanoma,> 100 µM
same,GI50,A549 NSCLC,> 100 µM
same,TGI,A549 NSCLC,> 100 µM
same,GI50,ACHN renal,> 100 µM
same,TGI,ACHN renal,> 100 µM
same,GI50,MCF7 breast,> 100 µM
same,TGI,MCF7 breast,> 100 µM
same,GI50,SN12C renal,> 100 µM
same,TGI,SN12C renal,> 100 µM
same,GI50,HT29 colon,> 100 µM
same,TGI,HT29 colon,> 100 µM
same,GI50,U251 CNS,> 100 µM
same,TGI,U251 CNS,> 100 µM
same,GI50,SF-295 CNS,> 100 µM
same,TGI,SF-295 CNS,> 100 µM
same,GI50,CCRF-CEM leukemia,> 100 µM
same,TGI,CCRF-CEM leukemia,> 100 µM
same,GI50,LOX IMVI melanoma,> 100 µM
same,TGI,LOX IMVI melanoma,> 100 µM
same,GI50,SR leukemia,> 100 µM
same,TGI,SR leukemia,> 100 µM
same,GI50,HS 578T breast,35.8 µM
same,TGI,HS 578T breast,> 100 µM
same,GI50,MALME-3M melanoma,> 100 µM
same,TGI,MALME-3M melanoma,> 100 µM
same,GI50,MDA-MB-231 breast,> 100 µM
same,TGI,MDA-MB-231 breast,> 100 µM
same,GI50,UACC-62 melanoma,> 100 µM
same,TGI,UACC-62 melanoma,> 100 µM
same,GI50,NCI-H522 lung,> 100 µM
same,TGI,NCI-H522 lung,> 100 µM
same,GI50,HOP-92 NSCLC,> 100 µM
same,TGI,HOP-92 NSCLC,> 100 µM
same,GI50,MDA-MB-435,> 100 µM
same,TGI,MDA-MB-435,> 100 µM
same,GI50,SK-OV-3 ovarian,> 100 µM
same,TGI,SK-OV-3 ovarian,> 100 µM
same,GI50,PC-3 prostate,> 100 µM
same,TGI,PC-3 prostate,> 100 µM
same,GI50,MOLT-4 leukemia,> 100 µM
same,TGI,MOLT-4 leukemia,> 100 µM
same,GI50,SK-MEL-2 melanoma,> 100 µM
same,TGI,SK-MEL-2 melanoma,> 100 µM
